How the values were obtained:
hERG potassium channel = hERG potassium channel (Homo sapiens, UniProt Q12809); assay: hERG potassium channel inhibition assay
SH-SY5Y neuronal cells = assay: Oxygen consumption rate in SH-SY5Y cells; format: cell-based, human; conditions: 24 h, 8, 40 and 200 nM, dose-dependent
[1] = tested on: sirtuin 1 (SirT1) expression in SH-SY5Y cells; assay: SirT1 AlphaLISA in SH-SY5Y cell lysate; format: cell-based, human; conditions: 200 nM, 24 h
Protocol: (§1) Additional assays: The Aβ1-42 ELISA assay was performed on hippocampus brain homogenate according to the manufacturer’s protocol (Fisher KHB3441). Humanin in cell culture lysate was quantify by ELISA assay, according to the manufacturer’s protocol (MyBioSourc Cat# MBS7607247). SirT1 in cell culture lysate was quantify using AlphaLISA. Cell lysate (2 μL) was added to a 384-well proxy plate preloaded with 2 µL anti-SiRT1 antibody mixture (ABCAM catalog AB110304, biotinylated (10 nM) and ABCAM catalog AB104833, acceptor bead conjugated (50 µg/mL, Cat#6772001, Perkin Elmer)) was added and incubated at room temperature for 1 hour. AlphaScreen Streptavidin Donor beads (2 µL, Cat#6760002S, Perkin Elmer) were added, incubated for an additional 30 min in the dark, and the plate was read in an Envision plate reader.

[2] = tested on: humanin (HN) expression in SH-SY5Y cells; assay: Humanin ELISA in SH-SY5Y cell lysate; format: cell-based, human; conditions: 200 nM, 24 h
Protocol: as §1

[3] = tested on: ApoE4TR-5XFAD murine model of AD; assay: Subchronic two-week oral study in ApoE4TR-5XFAD mice (hippocampus biomarkers, proteomics); format: in vivo, mouse; conditions: oral 15 mg/kg BID, two weeks, vs vehicle
Protocol: Brain tissue was homogenized and diluted to a protein concentration of 50 ng/mL. The Mouse Clusterin ELISA Kit (Cat#ab199079, Abcam) was performed according to the manufacturer’s protocol.
as §1
All procedures were performed in accordance with protocols approved by the UCLA Institutional Animal Care and Use Committee (IACUC) and guidelines of the NIH. Mouse strains used were C57BL/6 J (Black 6, Jackson Laboratory; JAX stock #000564). All non-AD mice were 4 to 5 mo old at the time of the experiments. […]

Sequence of hERG potassium channel (Q12809 whole entry): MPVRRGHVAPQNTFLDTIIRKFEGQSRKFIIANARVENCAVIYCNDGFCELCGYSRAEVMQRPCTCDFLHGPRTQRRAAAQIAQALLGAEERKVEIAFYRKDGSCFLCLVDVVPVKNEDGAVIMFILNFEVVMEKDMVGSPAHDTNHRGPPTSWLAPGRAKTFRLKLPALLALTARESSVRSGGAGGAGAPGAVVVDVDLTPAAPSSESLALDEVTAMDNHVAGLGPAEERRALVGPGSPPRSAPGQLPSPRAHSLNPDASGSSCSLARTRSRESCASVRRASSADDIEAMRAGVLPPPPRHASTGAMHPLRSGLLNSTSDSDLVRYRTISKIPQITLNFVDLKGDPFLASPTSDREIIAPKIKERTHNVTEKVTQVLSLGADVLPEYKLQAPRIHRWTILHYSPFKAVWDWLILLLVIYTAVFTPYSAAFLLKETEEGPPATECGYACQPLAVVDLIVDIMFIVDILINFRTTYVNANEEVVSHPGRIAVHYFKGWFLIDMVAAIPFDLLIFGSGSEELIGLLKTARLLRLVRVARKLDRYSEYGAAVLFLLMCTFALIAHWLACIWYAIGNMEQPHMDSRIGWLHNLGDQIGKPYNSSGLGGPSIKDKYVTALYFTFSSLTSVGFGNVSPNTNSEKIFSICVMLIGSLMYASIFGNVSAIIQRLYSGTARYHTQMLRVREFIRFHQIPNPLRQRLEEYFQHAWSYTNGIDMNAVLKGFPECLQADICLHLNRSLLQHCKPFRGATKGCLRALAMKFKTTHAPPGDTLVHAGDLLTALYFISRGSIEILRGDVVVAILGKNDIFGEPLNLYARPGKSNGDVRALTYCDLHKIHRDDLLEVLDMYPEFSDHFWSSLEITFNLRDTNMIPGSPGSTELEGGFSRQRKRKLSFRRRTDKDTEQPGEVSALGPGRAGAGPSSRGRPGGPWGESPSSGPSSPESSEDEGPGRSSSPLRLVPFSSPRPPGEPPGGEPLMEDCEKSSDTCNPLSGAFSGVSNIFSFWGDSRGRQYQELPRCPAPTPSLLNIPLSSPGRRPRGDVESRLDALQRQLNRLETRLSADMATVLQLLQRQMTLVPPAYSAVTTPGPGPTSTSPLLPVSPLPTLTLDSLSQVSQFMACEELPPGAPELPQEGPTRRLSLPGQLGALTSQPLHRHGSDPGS

Q: `Cc1sc2c(c1C)C(c1ccc(Cl)cc1)=N[C@@H](CC(=O)OC1CC1)c1nnc(C)n1-2` [DDL-357] was tested. Which EC50 (hERG potassium channel) did it give?
A: The EC50 was over 100 µM.

Q: And the oxygen consumption rate (SH-SY5Y neuronal cells)?
A: The oxygen consumption rate was “increased the oxygen consumption rate”.

Q: And the “sirtuin 1 (SirT1) expression” value [1]?
A: Its value is “significantly increased expression”.

Q: And the “humanin (HN) expression” value [2]?
A: Its value is “significantly increased expression”.

Q: And the Aβ1-42 in brain [3]?
A: The Aβ1-42 in brain was “the difference did not reach significance”.

Q: And the “sCLU levels in the hippocampus” value [3]?
A: The value was “significant increase”.
